Source: patent US20160243011A1, “Formulations Comprising Idebenone, N-Acetyl-S-Farnesyl-L-Cysteine and Ergothioneine and Uses Thereof” (ELIZABETH ARDEN, INC., priority 2012, published 2016)

Tests used:
IL-6 [1] = experiment: UVB induced IL-6 release in NHEKs (ELISA); assay type: cell-based, Human; settings: for IL-6 (% inh) / EPF Score: 1 μM; for IL-6 (% inh) / inhibition at 1 µM: 6 hours pre-treatment, NHEK, UVB 25 mJ/cm2, 24 hours; for EPF Score: Example 8 (8A), IL-6; for inhibition at 1 µM: Homo sapiens, light or radiation study, read-out: IL-6 (% inh)
Method: (§1) In order to evaluate the impact of UV-induced inflammation in human skin, primary cell monolayer cultures were exposed to different types of UV radiation, i.e. UVB and UVA. Primary Human Dermal Fibroblasts (HDFs) were irradiated with UVA (350 nm) and Normal Human Epidermal Keratinocytes cells (NHEKs) with UVB (305 nm). HDFs were cultured in Dulbecco's Modified Eagle Medium (DMEM) basal medium (Life Technologies, Grand Island, N.Y.), supplemented with 10% v/v fetal bovine serum (FBS), (referred to as supplemented media) at 37° C. with 5% CO2 NHEKs were cultured in Epilife® basal medium (Life Technologies, Grand Island, N.Y.), supplemented with 60 μM calcium, 0.2% v/v bovine pituitary extract (BPE), 5 μg/ml bovine insulin, 0.18 μg/ml hydrocortisone, 5 μg/ml bovine transferrin, 5 μg/ml, 0.2 ng/ml human epidermal growth factor (referred to as supplemented media) at 37° C. with 5% CO2.
(§2) In order to avoid possible immunomodulating effects of these agents during compound treatments, cells were kept in DMEM or Epilife® basal medium without growth supplements (referred to as depleted media). Cells were plated at a concentration of 3.8×10^4 cells/well in supplemented media in 24-well plates. After cells were allowed to adhere (24 hours), media was changed to depleted media.
(§3) For “blend” testing, a formulation of idebenone, Arazine™ and ergothioneine (1:1:1 molar ratio) was prepared before mixing to medium. Six hours after pre-treatments, to induce a pro-inflammatory response, pre-treatment media was removed and replaced with phosphate-buffered saline (PBS).
(§4) Immediately after UV irradiation, cells were placed in fresh depleted medium for 24 hours. Cell cultures were examined for viability by the reduction of 3-(4,5-dimethylthiazol-2-yl)-5-(3-carboxymethoxyphenyl)-2-(4-sulfophenyl)-2H-tetrazolium (MTS assay; Promega, Madison, Wis.) to determine the percentage of viable cells after compound and UV irradiation. Media supernatants were harvested from non-irradiated and UV irradiated cells and assayed by enzyme-linked immunosorbent assays (ELISA) for the stimulated release of pro-inflammatory mediators. NHEKs were assayed for concentrations of Interleukin-6 (IL-6) and Tumor Necrosis Factor-alpha (TNF-alpha) using appropriate protein standards (BD Biosciences; San Jose, Calif.). HDFs were assayed for concentrations of IL-6 (BD Biosciences) or pro-Matrix Metalloproteinase-1 (pro-MMP-1) using appropriate protein standards (R&D Systems; Minneapolis, Minn.).
(§5) Control groups contained non-irradiated cells. Twenty four hours later, cell medium were assayed for the presence of pro-inflammatory mediators by ELISA.
(§6) To test these anti-oxidants for anti-inflammatory properties, primary Human Epidermal Keratinocytes (NHEKs) were cultured in the presence of each ingredient for 6 hours. Ingredients were then removed and cells were irradiated with 25 mJ/cm2 UVB. Media supernatants were collected after 24 hours and analyzed by ELISA for IL-6 and TNF-α. All ingredients were tested at 1 μM.

TNFα = experiment: UVB induced TNFα release in NHEKs (ELISA); assay type: cell-based, Human; settings: for TNFα (% inh) / EPF Score: 1 μM; for TNFα (% inh) / inhibition at 1 µM: 6 hours pre-treatment, NHEK, UVB 25 mJ/cm2, 24 hours; for EPF Score: Example 8 (8B), TNFα; for inhibition at 1 µM: Homo sapiens, light or radiation study, read-out: TNFα (% inh)
Method: as §1, §2, §3, §4, §5, §6

[2] = Radical scavenging capacity (oxidation of ABTS by metmyoglobin); assay type: biochemical; settings: for EPF Score: Example 3, scores: 10^−3 M=5, 10^−4 M=15, 10^−5 M=20; for Effective and oxidant conc: lowest effective concentration, OD 750 nm
Excerpt: This assay analyzed the overall antioxidant capacity of test ingredients for the ability to inhibit the oxidation of 2,2′-azino-bis(3-ethylbenzothiazoline-6-sulphonic acid) (ABTS). to ABTS.^+ by metmyoglobin. The testing involved the suppression of optical density (OD) at 750 nm to a degree that is proportional to an effective oxidation inhibition. The EPF scoring system was based on the lowest effective concentration as previously described by MacDaniel et al., 2005 and scores were assigned as follows: 10^−3 M=5; 10^−4 M=15; 10^−5 M=20.

Human LDL = experiment: LDL pro-oxidative system measuring primary oxidation by-products; assay type: biochemical; settings: 100 μM; for Lipid hydrogen-peroxide % protection: CuSO4 oxidative system, 24 hours; for EPF Score: Example 4
Method: Human LDL was oxidized with or without 0.1 mM materials under a CuSO4 oxidative system in Ham's F-10 medium.

Rat liver microsomes = experiment: Microsome pro-oxidative system measuring secondary oxidation by-products (TBARS); assay type: biochemical; settings: 100 μM; for Lipid MDA % protection: NADPH/ADP/Fe^3+ oxidative system, 24 hours; for EPF Score: Example 5
Method: Rat liver microsomes were oxidized with or without test ingredients at 0.1 mM using a NADPH/ADP/Fe^3+ oxidative system. Secondary oxidation products were quantified after 24 hours incubation by measuring MDA equivalents directly utilizing the production of Thiobarbituric acid-reactive substances (TBARS). Results are expressed as the change in optical density (OD) at 532 nm to a degree that is proportional to an effective oxidation inhibition based on 1,1,3,3-tetraethoxypropane as MDA-TBA production standard.

[3] = system: Primary Human Epidermal Keratinocytes (NHEKs); experiment: UVB induced DNA damage (thymine dimer formation); assay type: cell-based; settings: 1 μM, 6 hours pre-treatment; UVB 200 mJ/cm^2
Method: Primary Human Epidermal Keratinocytes (NHEKs) were cultured in the presence of each test ingredient (1 μM) for 6 hours and later removed prior to UVB irradiation (200 mJ/cm^2). Cells were fixed after 1 hour and stained with anti-thymine dimer antibody. Positive rounded stained cells were counted using a fluorescence microscope.

EpiDerm™ inserts = experiment: UVB induced sun burn cell (SBC) formation using EpiDerm; assay type: cell-based; settings: for SBC % inhibition / inhibition at 1000 µM: 1 mM topical, 6 hours, UVB 200 mJ/cm^2, fixed after 24 hours; for EPF Score: Example 7, 1 mM; for inhibition at 1000 µM: light or radiation study
Method: EpiDerm™ inserts (MatTek®) were topically treated in the presence of each test ingredient for 6 hours, after which they were removed, inserts were irradiated with 200 mJ/cm^2 UVB, and they fixed for H&E staining after 24 hours. The number of sun burn cells (SBCs) (white arrows) was counted. All compounds were tested at 1 mM.

IL-6 [4] = experiment: UVA induced IL-6 production in HDFs (ELISA); assay type: cell-based, Human; settings: for IL-6 (% inh) / EPF Score: 1 μM; for IL-6 (% inh) / inhibition at 1 µM: 6 hours pre-treatment, HDF, UVA 12.5 J/cm^2, 24 hours; for EPF Score: Example 9 (9A), IL-6; for inhibition at 1 µM: Homo sapiens, light or radiation study, read-out: IL-6 (% inh)
Method: as §1, §2, §3, §4
(§7) To test these anti-oxidants for anti-inflammatory and anti-aging properties, primary Human Dermal Fibroblasts (HDFs) were cultured in the presence of each ingredient for 6 hours. […] Media supernatants were collected after 24 hours and analyzed by ELISA for IL-6 and pro-MMP-1. All ingredients were tested at 1 μM.

pro-MMP-1 = experiment: UVA induced pro-MMP-1 production in HDFs (ELISA); assay type: cell-based, Human; settings: for MMP-1 (% inh) / EPF Score: 1 μM; for MMP-1 (% inh) / inhibition at 1 µM: 6 hours pre-treatment, HDF, UVA 12.5 J/cm^2, 24 hours; for EPF Score: Example 9 (9B), MMP-1; for inhibition at 1 µM: Homo sapiens, light or radiation study, read-out: MMP-1 (% inh)
Method: as §1, §2, §3, §4, §7

[5] = Total Environmental Protection Factor (EPF) score; settings: 180 point scoring system (20 points for each endpoint measured)
[6] = system: Primary Human Epidermal Keratinocytes (NHEKs); experiment: UVB induced DNA damage (thymine dimer formation); assay type: cell-based; settings: Example 6; 1 μM

Compound | IL-6 (% inh) (IL-6 [1]) | EPF Score (IL-6 [1]) | EPF Score (TNFα) | EPF Score [2] | Effective and oxidant conc [2] | Lipid hydrogen-peroxide % protection (Human LDL) | EPF Score (Human LDL) | Lipid MDA % protection (Rat liver microsomes) | EPF Score (Rat liver microsomes) | DNA damage % protection [3] | EPF Score (EpiDerm™ inserts) | EPF Score (IL-6 [4]) | EPF Score (pro-MMP-1) | Total EPF score (TTL) [5] | inhibition at 1 µM (IL-6 [1]) | inhibition at 1 µM (TNFα) | inhibition at 1000 µM (EpiDerm™ inserts) | inhibition at 1 µM (IL-6 [4]) | inhibition at 1 µM (pro-MMP-1) | EPF Score [6] | other results
O=C(O)CCCC[C@@H]1CCSS1 (racemic) [Lipoic acid] | 46% | 14 | 14 | 5 | >3 mM | 5% | 2 | 25% | 7 | 13% | 8 | 13 | 16 | 94 | – | – | – | – | – | – | TNFα (% inh) (TNFα): 52%; SBC % inhibition (EpiDerm™ inserts): 27%; IL-6 (% inh) (IL-6 [4]): 62%; MMP-1 (% inh) (pro-MMP-1): 80%
COc1cc(/C=C/C(=O)O)ccc1O [Ferulic acid] | – | 16 | 14 | 20 | 0.03 mM | 94% | 20 | 63% | 17 | 14% | 18 | 13 | 7 | 130 | 54% | 55% | 64% | 62% | 37% | 5 | –
c1coc(CNc2ncnc3[nH]cnc23)c1 [Kinetin] | – | 16 | 10 | – | – | 1% | 1 | 0% | 0 | 14% | 18 | 15 | 2 | – | – | – | 62% | – | – | – | –
COC1=C(OC)C(=O)C(C/C=C(\C)CC/C=C(\C)CC/C=C(\C)CC/C=C(\C)CC/C=C(\C)CC/C=C(\C)CC/C=C(\C)CC/C=C(\C)CC/C=C(\C)CCC=C(C)C)=C(C)C1=O [Ubiquinone] | – | 10 | 12 | 5 | >3 mM | 14% | 5 | 62% | 17 | 9% | 13 | 17 | 5 | 87 | 34% | 48% | 46% | 79% | 26% | 3 | –
O=C1O[C@H]([C@@H](O)CO)C(O)=C1O [Vitamin C, ascorbic acid] | – | 4 | 9 | 20 | 0.03 mM | 0% | 1 | 7% | 2 | 16% | 9 | 17 | 3 | 73 | 13% | 36% | 31% | 81% | 13% | 6 | –
tocopherol [Vitamin E] | 12% | 4 | 4 | 20 | 0.06 mM | 56% | 12 | 45% | 12 | 9% | 6 | 18 | 16 | 95 | – | – | – | – | – | 3 | TNFα (% inh) (TNFα): 16%; SBC % inhibition (EpiDerm™ inserts): 21%; IL-6 (% inh) (IL-6 [4]): 82%; MMP-1 (% inh) (pro-MMP-1): 80%
